Data set [1] concerns the target T1, Human 11β HSD1 (Homo sapiens, UniProt P28845).
T1 construct: human hepatic microsomes were obtained from XenoTech, product H0610/Lot 0210078; tissue XenoTech H0610/Lot 0210078; host or cells: human liver (hepatic microsomes)
The data set is described as follows: biochemical. It is filed as biochemical. The conditions noted are these: Lineweaver-Burke plot, RIA detection, buffer 3, 10 μg/well microsomal protein, 30 min (FIG. 20); read-out: apparent Km. The method, then: Standard Operating Procedure for the 11β-Hydroxysteroid Dehydrogenase Type 1 cortisol Radioimmunoassay (11β HSD1 Cortisol RIA).
30 mM Tris-HCL, pH 7.2 containing 1 mM EDTA.
50 mM Tris-HCL, pH 8, containing 0.1 M NaCl and 0.1% gelatin.
Prepare 10 mM stock solutions in 100% DMSO at 100 times the required assay concentration. Dilute into assay buffer 1 in 25. Also dilute neat DMSO 1 in 25 into assay buffer for controls.
Dilute this 1 in 50 into assay buffer.
Prepare NADPH as a 1.8 mg/ml solution in assay buffer.
Mix these 3solutions 1:1:1 to make a solution of sufficient volume for 25 μl additions to each sample. Add 0.5 μCi tritiated cortisone per 25 μl and mix the solution well.
Dilute stock 20 mg/ml solution 1 in 100 with assay buffer.
Dilute stock antibody solution to 17 μg/ml in antibody binding buffer.
Make a 20 mg/ml solution in antibody binding buffer and chill on ice.
To a u-bottom polypropylene 96 well plate add: • 25 μl compound dilution or diluted DMSO to controls, NSB's and blanks • 10 μl 1 mM GA in DMSO (enzyme stop solution) to blanks • 25 μl substrate mixture to all samples • 50 μl diluted microsomes to all samples • Incubate plate for 30 min at 37° C. shaking p0 Add 10 μl enzyme stop solution to all wells except the blanks • Add 100 μl antibody solution to all wells except the NSB's, add antibody binding buffer to these wells • Incubate at 37° C. for 1 h • Chill plate on ice for 15 min • Add 50 μl/well charcoal solution and mix with an 8-channel pipette (4-5 aspirations) • Chill the plate on ice • Centrifuge at 4° C., 2000×g for 15 min • Transfer 100 μl supernatant into an Optiplate, also add 25 μl substrate mixture to 2 empty wells to indicate counting efficiency • Add 200 μl Microscint-40 to all wells and count on a Topcount Radioimmunoassay
The 11β HSD1 enzyme assay was carried out following the standard operating procedure described above in u-bottom polypropylene 96 well plates or 1.5 ml Eppendorf tubes as indicated for each experiment. Subsequent to stopping the enzyme reaction, 100 μl antibody prepared in buffer 3 unless otherwise indicated was added to test samples and 100 μl buffer 3 was added to the NSB samples. The samples were incubated for 1 hour at 37° C. and the chilled on ice for 15 mins. Dextran coated charcoal (50 μl/sample) prepared to the indicated concentration in buffer 3 was added and the samples were mixed (vortex for tubes and aspiration 5 times with an 8-channel pipette for 96 well plates) and chilled for a further 10 min. The samples were centrifuged at 2000×g for 15 min at 4° C. to pellet the charcoal. Aliquots of the supernatant (100 μl) were transferred to an Optiplate and counted on the Topcount in 150-200 μl Microscint 40. In some experiments, aliquots of supernatant were transferred to scintillation vials and counted on the Tricarb LSC in 5 ml Ultima Gold scintillant.

For data set [2], the target named is T2, human hepatic microsomal 11β HSD1 (Homo sapiens, UniProt P28845).
T2 construct: human hepatic microsomes were obtained from XenoTech, product H0610/Lot 0210078; tissue XenoTech H0610/Lot 0210078; host or cells: human liver (hepatic microsomes)
It is filed as biochemical. The conditions noted are these: Lineweaver-Burke plot, 10 μg microsomal protein, 30 min at 37° C., Buffer 1 (FIG. 6); read-out: apparent Km for cortisone.
Procedure: Assay of Human and Rat Hepatic Microsomal 11β-HSD1 Activity using a TLC Separation of Substrate from Product
The assay was carried out in Buffer 2 and the cortisone concentration used was 2 μM containing 0.5 μCi per incubation ^3H-cortisone. Rat and human hepatic microsomes were tested at concentrations ranging from 400 μg to 50 μg microsomal protein per incubation in a final incubation volume of 100 μl in glass tubes. Buffer was substituted for microsomal protein for blanks. Samples were incubated for 1 h in a shaking water bath at 37° C. and the assay was stopped by the addition of 1 ml ethyl acetate. To correct for recovery, 50 μl ^14C-cortisol (approximately 4000 DPM per tube) was added to the samples followed by 200 μl 0.05% CaCl2. […] The upper organic phase was removed into clean tubes and dried down. […] DPM were measured on a TriCarb liquid scintillation counter using a dual label programme. Recovery was determined from the DPM obtained in 50 μl ^14C-cortisol solution which was counted with the samples.
In the next test, the same assay method was followed except that only human hepatic microsomes were examined and the concentration range of these was from 3.7 μg per sample to 100 μg per sample. The samples were incubated for 60 min, 45 min, 30 min or 15 min in a shaking water bath at 37° C. and were stopped, extracted and the substrate and product were separated as detailed above. […]

The structures appear in SMILES notation.

T1 sequence (P28845 whole entry): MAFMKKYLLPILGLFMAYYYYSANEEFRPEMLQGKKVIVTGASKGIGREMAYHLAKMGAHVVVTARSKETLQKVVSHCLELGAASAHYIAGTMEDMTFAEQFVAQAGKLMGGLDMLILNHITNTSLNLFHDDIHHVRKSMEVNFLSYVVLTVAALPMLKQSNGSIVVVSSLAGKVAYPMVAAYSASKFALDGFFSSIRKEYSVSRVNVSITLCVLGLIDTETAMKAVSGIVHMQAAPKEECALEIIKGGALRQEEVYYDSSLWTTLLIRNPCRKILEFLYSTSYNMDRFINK
T2 sequence (P28845 whole entry): as above

`CC1Nc2ccc(NC(=O)c3ccc(-c4ccccc4)cc3)cc2N1C` (stereo not shown) came in with a melting point of 270 to 270.3 °C.

As for `Cc1nc2cc(NC(=O)c3ccc(Cl)cc3Cl)ccc2n1C`, the melting point is 275 to 277 °C.

In turn, `Cc1nc2c(Cl)c(NC(=O)c3cc(Cl)cc(Cl)c3)ccc2s1` returned a melting point of 252 to 253 °C.

As to `CCCc1ccc(C(=O)Nc2ccc3sc(C)nc3c2Cl)cc1`, the melting point is 184 °C.

In turn, `Cc1nc2c(Cl)c(NC(=O)c3cc(Cl)ccc3Cl)ccc2s1` gave a melting point of 175 °C.

As for `COc1ccc(CC(=O)Nc2ccc3sc(C)nc3c2Cl)cc1`, the melting point was in the range of 173 to 174 °C.

The compound `COc1cccc(C(=O)Nc2ccc3sc(C)nc3c2Cl)c1` registered a melting point of 177 to 179 °C.

In turn, `COc1ccc(C(=O)Nc2ccc3sc(C)nc3c2Cl)cc1` registered a melting point of 182 °C.

The compound `COc1cccc(CC(=O)Nc2ccc3sc(C)nc3c2Cl)c1` showed a melting point of 147 to 148 °C.

`Cc1nc2c(Cl)c(NC(=O)Cc3ccc(Cl)cc3)ccc2s1` returned a melting point of 227 to 229 °C.

In turn, `O=C(NCCc1cccs1)c1ccc(-c2ccccc2)cc1` registered a melting point of 164 to 166 °C.

The compound `O=C(NCCc1cccs1)c1cc(Cl)cc(Cl)c1` displayed a melting point of 100 to 102 °C.

In turn, `O=C(Nc1ccc2c(c1)CCC2=O)c1ccc(-c2ccccc2)cc1` gave a melting point of 217 to 219 °C.

As for `CCCc1ccc(C(=O)Nc2ccc3c(c2)CCC3=O)cc1`, the melting point fell in the range of 181 to 184 °C.

In turn, `COc1cccc(C(=O)Nc2ccc3c(c2)CCC3=O)c1` returned a melting point of 203 to 204 °C.

`O=C(Nc1ccc(C(=O)c2ccccc2)cc1)c1ccc(-c2ccccc2)cc1` gave a melting point of 212 to 213 °C.

In the case of `O=C(c1ccccc1)c1ccc(NC(=O)c2cc(Cl)ccc2Cl)cc1`, the melting point was in the range of 150 to 153 °C.

In the case of `COc1ccc(C(=O)Nc2ccc(C(=O)c3ccccc3)cc2)cc1`, the melting point was in the range of 171 to 174 °C.

Regarding `CC(=O)c1ccc(NC(=O)c2cc(Cl)cc(Cl)c2)cc1`, the melting point was in the range of 199 to 200 °C.

`CCCc1ccc(C(=O)Nc2ccc3c(c2)CCCC3=O)cc1` showed a melting point of 168 to 170 °C.

Take `COc1cccc(C(=O)Nc2ccc3c(c2)CCCC3=O)c1`: the melting point fell in the range of 142 to 143 °C.

Turning to `Cc1nc2cc(NC(=O)c3cc(Cl)cc(Cl)c3)ccc2s1`, the melting point came to 194 °C.

Regarding `CCCc1ccc(S(=O)(=O)NCc2ccccn2)cc1`, the melting point is 109 °C.

With `C[C@]12CCC(=O)C=C1CC[C@@H]1[C@@H]2C(=O)C[C@@]2(C)[C@H]1CC[C@]2(O)C(=O)CO` [cortisone, Cortisone], the Km in data set [1] is 0.7 µM; in data set [2], 0.66 µM.

The values are drawn from US7230020B2, “11β-hydroxysteroid dehydrogenase inhibitors” (priority 2003, dated 2007).
